{"source": "ChEMBL document CHEMBL1201862", "about": "“PubChem BioAssay data set” (2004)", "assay_in_all_cases": "DTP human tumour cell line panel, 48 h", "key": {"A498": {"system": "A498"}, "ACHN": {"system": "ACHN"}, "CAKI-1": {"system": "CAKI-1"}, "HCC 2998": {"system": "HCC 2998"}, "HCT-15": {"system": "HCT-15"}, "HOP-62": {"system": "HOP-62"}, "HT-29": {"system": "HT-29"}, "IGROV-1": {"system": "IGROV-1"}, "M19-MEL": {"system": "M19-MEL"}, "MOLT-4": {"system": "MOLT-4"}, "OVCAR-8": {"system": "OVCAR-8"}, "SF-539": {"system": "SF-539"}, "SK-MEL-2": {"system": "SK-MEL-2"}, "SK-OV-3": {"system": "SK-OV-3"}, "SN12C": {"system": "SN12C"}, "UACC-257": {"system": "UACC-257"}, "EKVX": {"system": "EKVX"}}, "note": "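Growth conditions: 96-well plates. Treatment: test compound, 48 hours, 5 concentrations. Analysis: linear interpolation between bracketing concentrations; unreached endpoints set to highest concentration. GI50: concentration for 50% inhibition of growth.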 The source made the active and inactive calls. Cut-off read from the data, not from the text of the source: active = GI50 up to about 1.1 µM and inactive = higher."}
{"compound": "COC(OC)c1cccc2c1C(=O)CCC1(CC2)OCCCCO1", "values": [{"measurement": "GI50", "setting": "A498", "result": "> 100 µM (inactive)"}, {"measurement": "GI50", "setting": "ACHN", "result": "> 100 µM (inactive)"}, {"measurement": "GI50", "setting": "CAKI-1", "result": "> 100 µM (inactive)"}, {"measurement": "GI50", "setting": "HCC 2998", "result": "> 100 µM (inactive)"}, {"measurement": "GI50", "setting": "HCT-15", "result": "> 100", "unit": "µM"}, {"measurement": "GI50", "setting": "HOP-62", "result": "> 100 µM (inactive)"}, {"measurement": "GI50", "setting": "HT-29", "result": "> 100 µM (inactive)"}, {"measurement": "GI50", "setting": "IGROV-1", "result": "> 100 µM (inactive)"}, {"measurement": "GI50", "setting": "M19-MEL", "result": "> 100 µM (inactive)"}, {"measurement": "GI50", "setting": "MOLT-4", "result": "> 100 µM (inactive)"}, {"measurement": "GI50", "setting": "OVCAR-8", "result": "> 100 µM (inactive)"}, {"measurement": "GI50", "setting": "SF-539", "result": "> 100 µM (inactive)"}, {"measurement": "GI50", "setting": "SK-MEL-2", "result": "> 100 µM (inactive)"}, {"measurement": "GI50", "setting": "SK-OV-3", "result": "> 100 µM (inactive)"}, {"measurement": "GI50", "setting": "SN12C", "result": "> 100 µM (inactive)"}, {"measurement": "GI50", "setting": "UACC-257", "result": "> 100 µM (inactive)"}]}
{"compound": "CCC(=O)C(C)C1=Nc2nnc(CCCCCCCc3nnc4n3C(=O)C(C(C)C(=O)CC)=N4)n2C1=O", "note": "(stereo unspecified)", "values": [{"measurement": "GI50", "setting": "A498", "result": "> 100 µM (inactive)"}, {"measurement": "GI50", "setting": "ACHN", "result": "> 100 µM (inactive)"}, {"measurement": "GI50", "setting": "CAKI-1", "result": "> 100 µM (inactive)"}, {"measurement": "GI50", "setting": "EKVX", "result": "> 100 µM (inactive)"}, {"measurement": "GI50", "setting": "HCC 2998", "result": "> 100 µM (inactive)"}, {"measurement": "GI50", "setting": "HCT-15", "result": "> 100", "unit": "µM"}, {"measurement": "GI50", "setting": "HOP-62", "result": "> 100 µM (inactive)"}, {"measurement": "GI50", "setting": "HT-29", "result": "> 100 µM (inactive)"}, {"measurement": "GI50", "setting": "IGROV-1", "result": "> 100 µM (inactive)"}, {"measurement": "GI50", "setting": "M19-MEL", "result": "> 100 µM (inactive)"}, {"measurement": "GI50", "setting": "MOLT-4", "result": "> 100 µM (inactive)"}, {"measurement": "GI50", "setting": "OVCAR-8", "result": "> 100 µM (inactive)"}, {"measurement": "GI50", "setting": "SF-539", "result": "> 100 µM (inactive)"}, {"measurement": "GI50", "setting": "SK-OV-3", "result": "> 100 µM (inactive)"}, {"measurement": "GI50", "setting": "SN12C", "result": "> 100 µM (inactive)"}, {"measurement": "GI50", "setting": "UACC-257", "result": "> 100 µM (inactive)"}]}
{"compound": "COC1(OC)CC2C(=O)N(Cc3ccccc3)C1C(S(=O)(=O)c1ccccc1)C2S(=O)(=O)c1ccccc1", "note": "(stereo unspecified)", "values": [{"measurement": "GI50", "setting": "A498", "result": "18.2 µM (inactive)"}, {"measurement": "GI50", "setting": "ACHN", "result": "10.6 µM (inactive)"}, {"measurement": "GI50", "setting": "CAKI-1", "result": "13.8 µM (inactive)"}, {"measurement": "GI50", "setting": "HCC 2998", "result": "17.1 µM (inactive)"}, {"measurement": "GI50", "setting": "HCT-15", "result": 3.62, "unit": "µM"}, {"measurement": "GI50", "setting": "HOP-62", "result": "> 100 µM (inactive)"}, {"measurement": "GI50", "setting": "HT-29", "result": "11.6 µM (inactive)"}, {"measurement": "GI50", "setting": "IGROV-1", "result": "17.2 µM (inactive)"}, {"measurement": "GI50", "setting": "M19-MEL", "result": "11.1 µM (inactive)"}, {"measurement": "GI50", "setting": "MOLT-4", "result": "11.5 µM (inactive)"}, {"measurement": "GI50", "setting": "OVCAR-8", "result": "8.07 µM (inactive)"}, {"measurement": "GI50", "setting": "SF-539", "result": "14 µM (inactive)"}, {"measurement": "GI50", "setting": "SK-OV-3", "result": "30 µM (inactive)"}, {"measurement": "GI50", "setting": "SN12C", "result": "12.7 µM (inactive)"}, {"measurement": "GI50", "setting": "UACC-257", "result": "7.38 µM (inactive)"}]}
{"compound": "NC1=C(O)c2cccc3cccc(c23)C1=O", "values": [{"measurement": "GI50", "setting": "A498", "result": "> 100 µM (inactive)"}, {"measurement": "GI50", "setting": "ACHN", "result": "> 100 µM (inactive)"}, {"measurement": "GI50", "setting": "CAKI-1", "result": "> 100 µM (inactive)"}, {"measurement": "GI50", "setting": "EKVX", "result": "> 100 µM (inactive)"}, {"measurement": "GI50", "setting": "HCC 2998", "result": "> 100 µM (inactive)"}, {"measurement": "GI50", "setting": "HCT-15", "result": "> 100", "unit": "µM"}, {"measurement": "GI50", "setting": "HT-29", "result": "> 100 µM (inactive)"}, {"measurement": "GI50", "setting": "IGROV-1", "result": "> 100 µM (inactive)"}, {"measurement": "GI50", "setting": "M19-MEL", "result": "> 100 µM (inactive)"}, {"measurement": "GI50", "setting": "MOLT-4", "result": "> 100 µM (inactive)"}, {"measurement": "GI50", "setting": "OVCAR-8", "result": "> 100 µM (inactive)"}, {"measurement": "GI50", "setting": "SF-539", "result": "> 100 µM (inactive)"}, {"measurement": "GI50", "setting": "SK-MEL-2", "result": "> 100 µM (inactive)"}, {"measurement": "GI50", "setting": "SK-OV-3", "result": "> 100 µM (inactive)"}, {"measurement": "GI50", "setting": "SN12C", "result": "> 100 µM (inactive)"}, {"measurement": "GI50", "setting": "UACC-257", "result": "> 100 µM (inactive)"}]}
{"compound": "CC1(C)CC(c2c[nH]c3ccccc23)=CC2=Nc3ccccc3C21O", "note": "(stereo unspecified)", "values": [{"measurement": "GI50", "setting": "A498", "result": "> 100 µM (inactive)"}, {"measurement": "GI50", "setting": "ACHN", "result": "> 100 µM (inactive)"}, {"measurement": "GI50", "setting": "CAKI-1", "result": "48.8 µM (inactive)"}, {"measurement": "GI50", "setting": "EKVX", "result": "63.1 µM (inactive)"}, {"measurement": "GI50", "setting": "HCT-15", "result": "> 100", "unit": "µM"}, {"measurement": "GI50", "setting": "HOP-62", "result": "> 100 µM (inactive)"}, {"measurement": "GI50", "setting": "HT-29", "result": "59.4 µM (inactive)"}, {"measurement": "GI50", "setting": "IGROV-1", "result": "> 100 µM (inactive)"}, {"measurement": "GI50", "setting": "M19-MEL", "result": "> 100 µM (inactive)"}, {"measurement": "GI50", "setting": "MOLT-4", "result": "> 100 µM (inactive)"}, {"measurement": "GI50", "setting": "OVCAR-8", "result": "27 µM (inactive)"}, {"measurement": "GI50", "setting": "SF-539", "result": "93.1 µM (inactive)"}, {"measurement": "GI50", "setting": "SK-MEL-2", "result": "> 100 µM (inactive)"}, {"measurement": "GI50", "setting": "SK-OV-3", "result": "> 100 µM (inactive)"}, {"measurement": "GI50", "setting": "SN12C", "result": "> 100 µM (inactive)"}, {"measurement": "GI50", "setting": "UACC-257", "result": "> 100 µM (inactive)"}]}
{"compound": "Cc1c2ccnc(O)c2cc2c(=O)c3cnccc3[nH]c12", "values": [{"measurement": "GI50", "setting": "A498", "result": "> 100 µM (inactive)"}, {"measurement": "GI50", "setting": "ACHN", "result": "> 100 µM (inactive)"}, {"measurement": "GI50", "setting": "CAKI-1", "result": "> 100 µM (inactive)"}, {"measurement": "GI50", "setting": "EKVX", "result": "> 100 µM (inactive)"}, {"measurement": "GI50", "setting": "HCC 2998", "result": "> 100 µM (inactive)"}, {"measurement": "GI50", "setting": "HCT-15", "result": "> 100", "unit": "µM"}, {"measurement": "GI50", "setting": "HOP-62", "result": "> 100 µM (inactive)"}, {"measurement": "GI50", "setting": "HT-29", "result": "> 100 µM (inactive)"}, {"measurement": "GI50", "setting": "IGROV-1", "result": "> 100 µM (inactive)"}, {"measurement": "GI50", "setting": "M19-MEL", "result": "> 100 µM (inactive)"}, {"measurement": "GI50", "setting": "MOLT-4", "result": "> 100 µM (inactive)"}, {"measurement": "GI50", "setting": "OVCAR-8", "result": "> 100 µM (inactive)"}, {"measurement": "GI50", "setting": "SK-MEL-2", "result": "> 100 µM (inactive)"}, {"measurement": "GI50", "setting": "SK-OV-3", "result": "> 100 µM (inactive)"}, {"measurement": "GI50", "setting": "SN12C", "result": "> 100 µM (inactive)"}, {"measurement": "GI50", "setting": "UACC-257", "result": "> 100 µM (inactive)"}]}
{"compound": "Cc1c(/C=C2\\CC/C(=C\\c3[nH]c(C(=O)OC(C)(C)C)c(C)c3C)C2=O)[nH]c(C(=O)OC(C)(C)C)c1C", "values": [{"measurement": "GI50", "setting": "A498", "result": "> 100 µM (inactive)"}, {"measurement": "GI50", "setting": "CAKI-1", "result": "> 100 µM (inactive)"}, {"measurement": "GI50", "setting": "EKVX", "result": "> 100 µM (inactive)"}, {"measurement": "GI50", "setting": "HCC 2998", "result": "> 100 µM (inactive)"}, {"measurement": "GI50", "setting": "HCT-15", "result": "> 100", "unit": "µM"}, {"measurement": "GI50", "setting": "HOP-62", "result": "> 100 µM (inactive)"}, {"measurement": "GI50", "setting": "HT-29", "result": "> 100 µM (inactive)"}, {"measurement": "GI50", "setting": "IGROV-1", "result": "> 100 µM (inactive)"}, {"measurement": "GI50", "setting": "M19-MEL", "result": "> 100 µM (inactive)"}, {"measurement": "GI50", "setting": "MOLT-4", "result": "> 100 µM (inactive)"}, {"measurement": "GI50", "setting": "OVCAR-8", "result": "> 100 µM (inactive)"}, {"measurement": "GI50", "setting": "SF-539", "result": "> 100 µM (inactive)"}, {"measurement": "GI50", "setting": "SK-MEL-2", "result": "> 100 µM (inactive)"}, {"measurement": "GI50", "setting": "SK-OV-3", "result": "> 100 µM (inactive)"}, {"measurement": "GI50", "setting": "SN12C", "result": "> 100 µM (inactive)"}, {"measurement": "GI50", "setting": "UACC-257", "result": "> 100 µM (inactive)"}]}
